Experimental data taken from patent publication US10597366B2, “Aryl ethers and uses thereof” (Peloton Therapeutics, Inc., priority 2013, dated 2020).
pEC50: −log10 of the molar value.

System: 786-O-Hif-Luc cells (luciferase gene driven by multiple HIF responsive elements)
Assay: Luciferase Assay
Type: cell-based
Conditions: 24 h, 786-O-Hif-Luc cells, about 24 hours; read-out: Mean Luciferease EC50
Method: A pool of infected cells were then selected against 2 μg/mL of puromycin (P8833, Sigma) for 10 days followed by limited dilution to select single clones.
Each concentration was tested in triplicate. After about 24 hours, luciferase activity was determined using ONE-Glo Luciferase Assay Reagent (E6110, Promega) following the manufacturer's recommended procedure. EC50 were calculated by using Dotmatics software.

pEC50 | Compound
6.04 | O=S(=O)(c1ccc(Oc2cccc3[nH]ncc23)c2c1C(O)C(F)(F)C2)C(F)(F)F (centres unmarked) [Compound 243]
5.77 | O=S(=O)(c1ccc(Oc2c(F)ccc3[nH]ncc23)c2c1C(O)C(F)(F)C2)C(F)(F)F (centres unmarked) [Compound 244, 2,2-Difluoro-4-((5-fluoro-1H-indazol-4-yl)oxy)-7-((trifluoromethyl)sulfonyl)-2,3-dihydro-1H-inden-1-ol]
5.97 | N#Cc1cncc(Oc2ccc(S(N)(=O)=O)c3c2CC(F)(F)[C@H]3O)c1 [Compound 253, (S)-7-((5-Cyanopyridin-3-yl)oxy)-2,2-difluoro-3-hydroxy-2,3-dihydro-1H-indene-4-sulfonamide]
6.77 | O=S(=O)(c1ccc(Oc2cc(Cl)c[n+]([O-])c2)c2c1[C@H](O)C(F)(F)C2)C(F)(F)F [Compound 260, (S)-3-Chloro-5-((2,2-difluoro-1-hydroxy-7-((trifluoromethyl)sulfonyl)-2,3-dihydro-1H-inden-4-yl)oxy)pyridine 1-oxide]
5.78 | O=S(=O)(c1ccc(Oc2cc(F)c(F)c3[nH]ncc23)c2c1C(O)C(F)(F)C2)C(F)(F)F (centres unmarked) [Compound 261, 4-((6,7-Difluoro-1H-indazol-4-yl)oxy)-2,2-difluoro-7-((trifluoromethyl)sulfonyl)-2,3-dihydro-1H-inden-1-ol]
6.11 | O=S(=O)(c1ccc(Oc2cccc3[nH]ncc23)c2c1[C@H](O)C(F)(F)C2)C(F)(F)F [Compound 263, (S)-4-((1H-Indazol-4-yl)oxy)-2,2-difluoro-7-((trifluoromethyl)sulfonyl)-2,3-dihydro-1H-inden-1-ol]
5.56 | O=S(=O)(c1ccc(Oc2c(F)ccc3[nH]ncc23)c2c1[C@H](O)C(F)(F)C2)C(F)(F)F [Compound 264, (S)-2,2-Difluoro-4-((5-fluoro-1H-indazol-4-yl)oxy)-7-((trifluoromethyl)sulfonyl)-2,3-dihydro-1H-inden-1-ol]
7.52 | O=S(=O)(c1ccc(Oc2ccc(F)c3[nH]ncc23)c2c1[C@H](O)C(F)(F)C2)C(F)(F)F [Compound 266, (S)-2,2-difluoro-4-((7-fluoro-1H-indazol-4-yl)oxy)-7-((trifluoromethyl)sulfonyl)-2,3-dihydro-1H-inden-1-ol]
5.51 | N#Cc1cc(F)cc(Oc2ccc(S(=O)(=O)C(F)(F)F)c3c2CC(F)(F)[C@H]3NCCO)c1 [Compound 291, 3-[(1S)-2,2-difluoro-1-(2-hydroxyethylamino)-7-(trifluoromethylsulfonyl)indan-4-yl]oxy-5-fluoro-benzonitrile]

The remaining lines, values behind:

Compound | pEC50
CS(=O)(=O)c1ccc(Oc2cc(C#N)cc(C(F)F)c2)c2c1C(O)CC2 (centres unmarked) [Compound 249, 3-(Difluoromethyl)-5-((1-hydroxy-7-(methylsulfonyl)-2,3-dihydro-1H-inden-4-yl)oxy)benzonitrile] | 5.83
N#Cc1cc(F)cc(Oc2ccc(S(=O)(=O)CCO)c3c2CC(F)(F)C3O)c1 (centres unmarked) [Compound 250, 3-((2,2-Difluoro-1-hydroxy-7-((2-hydroxyethyl)sulfonyl)-2,3-dihydro-1H-inden-4-yl)oxy)-5-fluorobenzonitrile] | 5.53
O=[N+]([O-])c1ccc(Oc2cc(F)cc(Cl)c2)c2c1C(O)CC2 (centres unmarked) [Compound 255, 4-(3-Chloro-5-fluorophenoxy)-7-nitro-2,3-dihydro-1H-inden-1-ol] | 5.86
N#Cc1cc(F)cc(Oc2ccc(S(=N)(=O)C(F)(F)F)c3c2CCC3O)c1 (stereo not drawn) [Compound 258, 3-Fluoro-5-((1-hydroxy-7-(S-(trifluoromethyl)sulfonimidoyl)-2,3-dihydro-1H-inden-4-yl)oxy)benzonitrile] | 5.68
CS(=O)(=O)c1ccc(Oc2cc(F)cc(C#N)c2)c2c1C(=O)C(F)(Cl)C2 (centres unmarked) [Compound 269, 3-((2-chloro-2-fluoro-7-(methylsulfonyl)-1-oxo-2,3-dihydro-1H-inden-4-yl)oxy)-5-fluorobenzonitrile] | 4.71
CS(=O)(=O)c1ccc(Oc2cc(F)cc(C#N)c2)c2c1[C@H](O)C(F)(Cl)C2 (stereo partly drawn) [Compound 270, 3-(((1S)-2-chloro-2-fluoro-1-hydroxy-7-(methylsulfonyl)-2,3-dihydro-1H-inden-4-yl)oxy)-5-fluorobenzonitrile] | 7.00
C[S+]([O-])c1ccc(Oc2cc(F)cc(C#N)c2)c2c1[C@H](O)C(F)(F)C2 (stereo partly drawn) [Compound 272, 3-[(1S)-2,2-Difluoro-1-hydroxy-7-methylsulfinyl-indan-4-yl]oxy-5-fluoro-benzonitrile] | 5.64
CS(=O)(=O)c1ccc(Oc2cc(F)cc(C#N)c2)c2c1[C@H](O)C(F)(F)[C@H]2F [Compound 293, 3-fluoro-5-[(1S,3S)-2,2,3-trifluoro-1-hydroxy-7-methylsulfonyl-indan-4-yl]oxy-benzonitrile] | 6.11
CS(=O)(=O)c1ccc(Oc2cc(F)cc(C#N)c2)c2c1[C@H](O)[C@H](F)[C@H]2F [Compound 294, 3-[(1S,2S,3S)-2,3-difluoro-1-hydroxy-7-methylsulfonyl-indan-4-yl]oxy-5-fluoro-benzonitrile] | 6.00
CS(=O)(=O)c1ccc(Oc2cc(F)cc(C#N)c2)c2c1[C@H](O)C[C@@H]2F [Compound 295, 3-fluoro-5-[(1R,3S)-3-fluoro-1-hydroxy-7-methylsulfonyl-indan-4-yl]oxy-benzonitrile] | 6.41

Same assay, conditions: 24 h, read-out: Mean Luciferease EC50

pEC50 | Compound
7.31 | NS(=O)(=O)c1ccc(Oc2cc(F)cc(F)c2)c2c1[C@H](O)C(F)(F)C2 [Compound 256, (S)-7-(3,5-Difluorophenoxy)-2,2-difluoro-3-hydroxy-2,3-dihydro-1H-indene-4-sulfonamide]
6.77 | N#Cc1cc(F)cc(Oc2ccc(S(=O)(=O)C(F)(F)F)c3c2CC(F)(F)[C@H]3N)c1 [Compound 290, 3-[(1S)-1-amino-2,2-difluoro-7-(trifluoromethylsulfonyl)indan-4-yl]oxy-5-fluoro-benzonitrile]

The remaining lines, values behind:

Compound | pEC50
[2H][C@]1(O)c2c(S(C)(=O)=O)ccc(Oc3cc(F)cc(C#N)c3)c2CC1(F)F [Compound 247, (S)-3-((2,2-Difluoro-1-hydroxy-7-(methylsulfonyl)-2,3-dihydro-1H-inden-4-yl-1-d)oxy)-5-fluorobenzonitrile] | 7.62
CNS(=O)(=O)c1ccc(Oc2cc(F)cc(F)c2)c2c1[C@H](O)C(F)(F)C2 [Compound 251, (S)-7-(3,5-Difluorophenoxy)-2,2-difluoro-3-hydroxy-N-methyl-2,3-dihydro-1H-indene-4-sulfonamide] | 7.28
CNS(=O)(=O)c1ccc(Oc2cc(F)cc(C#N)c2)c2c1[C@H](O)C(F)(F)C2 [Compound 254, (S)-7-(3-Cyano-5-fluorophenoxy)-2,2-difluoro-3-hydroxy-N-methyl-2,3-dihydro-1H-indene-4-sulfonamide] | 6.92
CS(=O)(=O)c1ccc(Oc2cc(F)cc(C#N)c2)c2c1[C@H](O)[C@@H](F)C2 [Compound 271, 3-fluoro-5-(((1S,2S)-2-fluoro-1-hydroxy-7-(methylsulfonyl)-2,3-dihydro-1H-inden-4-yl)oxy)benzonitrile] | 6.33
CS(=O)(=O)c1ccc(Oc2cc(F)cc(C#N)c2)c2c1[C@H](O)[C@H](F)[C@@H]2F [Compound 289, 3-[(1S,2S,3R)-2,3-difluoro-1-hydroxy-7-methylsulfonyl-indan-4-yl]oxy-5-fluoro-benzonitrile] | 8.38
